Experimental data from ChEMBL document CHEMBL4507305, “Data for DCP probe TP-024” (2021).

Tests used:
[1] = system: Tyrosine-protein kinase ABL1 (Homo sapiens), P00519 [F317I]; details: Compound concentration 1000.0 nM
[2] = target: Tyrosine-protein kinase ABL2 (Homo sapiens) (UniProt P42684); details: Compound concentration 1000.0 nM
[3] = target: Mitotic checkpoint serine/threonine-protein kinase BUB1 (Homo sapiens) (UniProt O43683); details: Compound concentration 1000.0 nM
[4] = target: Cyclin-dependent kinase-like 3 (Homo sapiens) (UniProt Q8IVW4); details: Compound concentration 1000.0 nM
[5] = target: Dual specificity protein kinase CLK1 (Homo sapiens) (UniProt P49759); details: Compound concentration 1000.0 nM
[6] = target: Dual specificity protein kinase CLK4 (Homo sapiens) (UniProt Q9HAZ1); details: Compound concentration 1000.0 nM
[7] = target: Myotonin-protein kinase (Homo sapiens) (UniProt Q09013); details: Compound concentration 1000.0 nM
[8] = target: Dual specificity tyrosine-phosphorylation-regulated kinase 2 (Homo sapiens) (UniProt Q92630); details: Compound concentration 1000.0 nM
[9] = target: Ephrin type-A receptor 4 (Homo sapiens) (UniProt P54764); details: Compound concentration 1000.0 nM
[10] = target: Ephrin type-A receptor 5 (Homo sapiens) (UniProt P54756); details: Compound concentration 1000.0 nM
[11] = target: Ephrin type-A receptor 8 (Homo sapiens) (UniProt P29322); details: Compound concentration 1000.0 nM
[12] = target: Tyrosine-protein kinase Fes/Fps (Homo sapiens) (UniProt P07332); details: Compound concentration 1000.0 nM
[13] = target: Fibroblast growth factor receptor 1 (Homo sapiens) (UniProt P11362); details: Compound concentration 1000.0 nM
[14] = target: Fibroblast growth factor receptor 3 (Homo sapiens) (UniProt P22607); details: Compound concentration 1000.0 nM
[15] = target: Vascular endothelial growth factor receptor 3 (Homo sapiens) (UniProt P35916); details: Compound concentration 1000.0 nM
[16] = target: Tyrosine-protein kinase FRK (Homo sapiens) (UniProt P42685); details: Compound concentration 1000.0 nM
[17] = target: Insulin-like growth factor 1 receptor (Homo sapiens) (UniProt P08069); details: Compound concentration 1000.0 nM
[18] = target: Insulin receptor-related protein (Homo sapiens) (UniProt P14616); details: Compound concentration 1000.0 nM
[19] = system: Mast/stem cell growth factor receptor Kit (Homo sapiens), P10721 [A829P]; details: Compound concentration 1000.0 nM
[20] = target: Mast/stem cell growth factor receptor Kit (Homo sapiens) (UniProt P10721); details: Compound concentration 1000.0 nM
[21] = target: Serine/threonine-protein kinase LATS2 (Homo sapiens) (UniProt Q9NRM7); details: Compound concentration 1000.0 nM
[22] = target: Serine/threonine-protein kinase MAK (Homo sapiens) (UniProt P20794); details: Compound concentration 1000.0 nM
[23] = target: Mitogen-activated protein kinase kinase kinase 10 (Homo sapiens) (UniProt Q02779); details: Compound concentration 1000.0 nM
[24] = target: Serine/threonine-protein kinase MRCK alpha (Homo sapiens) (UniProt Q5VT25); details: Compound concentration 1000.0 nM
[25] = target: Myosin light chain kinase family member 4 (Homo sapiens) (UniProt Q86YV6); details: Compound concentration 1000.0 nM
[26] = target: Myosin-IIIb (Homo sapiens) (UniProt Q8WXR4); details: Compound concentration 1000.0 nM
[27] = target: Serine/threonine-protein kinase PAK 3 (Homo sapiens) (UniProt O75914); details: Compound concentration 1000.0 nM
[28] = target: Cyclin-dependent kinase 14 (Homo sapiens) (UniProt O94921); details: Compound concentration 1000.0 nM
[29] = target: Phosphatidylinositol 4-phosphate 5-kinase type-1 alpha (Homo sapiens) (UniProt Q99755); details: Compound concentration 1000.0 nM
[30] = target: Phosphatidylinositol 5-phosphate 4-kinase type-2 beta (Homo sapiens) (UniProt P78356); details: Compound concentration 1000.0 nM
[31] = target: Serine/threonine-protein kinase RIO3 (Homo sapiens) (UniProt O14730); details: Compound concentration 1000.0 nM
[32] = target: Receptor-interacting serine/threonine-protein kinase 1 (Homo sapiens) (UniProt Q13546); details: Compound concentration 1000.0 nM
[33] = target: Rho-associated protein kinase 1 (Homo sapiens) (UniProt Q13464); details: Compound concentration 1000.0 nM
[34] = target: Ribosomal protein S6 kinase alpha-4 (Homo sapiens) (UniProt O75676); details: Compound concentration 1000.0 nM
[35] = target: Ribosomal protein S6 kinase alpha-2 (Homo sapiens) (UniProt Q15349); details: Compound concentration 1000.0 nM
[36] = target: Dual specificity testis-specific protein kinase 1 (Homo sapiens) (UniProt Q15569); details: Compound concentration 1000.0 nM
[37] = target: High affinity nerve growth factor receptor (Homo sapiens) (UniProt P04629); details: Compound concentration 1000.0 nM
[38] = target: Transient receptor potential cation channel subfamily M member 6 (Homo sapiens) (UniProt Q9BX84); details: Compound concentration 1000.0 nM
[39] = target: Mitogen-activated protein kinase kinase kinase 20 (Homo sapiens) (UniProt Q9NYL2); details: Compound concentration 1000.0 nM
[40] = target: Tyrosine-protein kinase ZAP-70 (Homo sapiens) (UniProt P43403); details: Compound concentration 1000.0 nM
[41] = target: 5-hydroxytryptamine receptor 1A (Homo sapiens) (UniProt P08908); details: Compound concentration 10.0 uM
[42] = target: 5-hydroxytryptamine receptor 5A (Homo sapiens) (UniProt P47898); details: Compound concentration 10.0 uM
[43] = target: 5-hydroxytryptamine receptor 6 (Homo sapiens) (UniProt P50406); details: Compound concentration 10.0 uM
[44] = target: Beta-2 adrenergic receptor (Homo sapiens) (UniProt P07550); details: Compound concentration 10.0 uM
[45] = target: Beta-3 adrenergic receptor (Homo sapiens) (UniProt P13945); details: Compound concentration 10.0 uM
[46] = target: Alpha-1D adrenergic receptor (Homo sapiens) (UniProt P25100); details: Compound concentration 10.0 uM
Alpha-1D adrenergic receptor (Homo sapiens), sequence (P25100 whole entry): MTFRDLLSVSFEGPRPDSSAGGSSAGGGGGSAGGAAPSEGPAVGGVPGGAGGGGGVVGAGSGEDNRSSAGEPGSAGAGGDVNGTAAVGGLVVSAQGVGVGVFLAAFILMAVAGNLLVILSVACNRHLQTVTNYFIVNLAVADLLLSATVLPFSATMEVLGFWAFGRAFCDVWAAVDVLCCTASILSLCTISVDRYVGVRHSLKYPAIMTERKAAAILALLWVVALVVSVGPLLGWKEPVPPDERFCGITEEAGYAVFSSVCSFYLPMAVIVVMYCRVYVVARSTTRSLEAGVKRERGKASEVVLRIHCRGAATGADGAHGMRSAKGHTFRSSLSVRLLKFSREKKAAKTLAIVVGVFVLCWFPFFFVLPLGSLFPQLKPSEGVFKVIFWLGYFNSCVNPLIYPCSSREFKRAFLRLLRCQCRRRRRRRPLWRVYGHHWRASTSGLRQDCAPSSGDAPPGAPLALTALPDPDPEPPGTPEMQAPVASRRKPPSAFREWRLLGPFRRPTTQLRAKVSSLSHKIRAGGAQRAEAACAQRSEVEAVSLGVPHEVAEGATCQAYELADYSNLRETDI

Myotonin-protein kinase (Homo sapiens), sequence (Q09013 whole entry): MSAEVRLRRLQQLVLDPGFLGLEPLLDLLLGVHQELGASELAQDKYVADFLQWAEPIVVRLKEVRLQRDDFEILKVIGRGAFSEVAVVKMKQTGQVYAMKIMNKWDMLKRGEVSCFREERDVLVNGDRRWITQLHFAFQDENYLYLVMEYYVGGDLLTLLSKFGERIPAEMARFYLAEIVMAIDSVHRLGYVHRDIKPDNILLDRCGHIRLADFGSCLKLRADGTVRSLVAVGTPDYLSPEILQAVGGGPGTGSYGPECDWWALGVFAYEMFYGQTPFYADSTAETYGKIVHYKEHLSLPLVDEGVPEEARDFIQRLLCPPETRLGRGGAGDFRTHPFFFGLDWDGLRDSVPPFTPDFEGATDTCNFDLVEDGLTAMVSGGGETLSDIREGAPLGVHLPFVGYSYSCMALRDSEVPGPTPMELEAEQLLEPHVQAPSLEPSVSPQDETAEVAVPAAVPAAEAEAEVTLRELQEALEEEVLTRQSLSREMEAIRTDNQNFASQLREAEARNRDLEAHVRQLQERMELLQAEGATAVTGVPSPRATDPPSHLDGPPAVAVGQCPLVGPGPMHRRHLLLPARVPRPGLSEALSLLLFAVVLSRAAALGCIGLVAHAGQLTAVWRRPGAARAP
Phosphatidylinositol 4-phosphate 5-kinase type-1 alpha (Homo sapiens), sequence (Q99755 whole entry): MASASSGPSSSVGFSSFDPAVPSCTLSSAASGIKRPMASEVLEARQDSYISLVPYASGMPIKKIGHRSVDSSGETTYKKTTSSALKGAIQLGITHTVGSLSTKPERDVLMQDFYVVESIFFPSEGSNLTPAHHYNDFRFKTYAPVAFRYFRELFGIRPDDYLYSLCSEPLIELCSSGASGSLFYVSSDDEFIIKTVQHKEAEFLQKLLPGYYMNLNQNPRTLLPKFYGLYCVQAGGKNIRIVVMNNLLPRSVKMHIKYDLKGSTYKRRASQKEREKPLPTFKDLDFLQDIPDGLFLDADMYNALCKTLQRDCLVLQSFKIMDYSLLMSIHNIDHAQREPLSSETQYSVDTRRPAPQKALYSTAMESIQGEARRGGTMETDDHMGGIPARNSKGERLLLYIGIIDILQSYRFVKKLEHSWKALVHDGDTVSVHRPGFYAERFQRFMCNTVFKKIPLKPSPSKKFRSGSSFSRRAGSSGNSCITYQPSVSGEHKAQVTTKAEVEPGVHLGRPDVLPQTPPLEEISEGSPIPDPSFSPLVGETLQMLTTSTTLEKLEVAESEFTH
Vascular endothelial growth factor receptor 3 (Homo sapiens), sequence (P35916 whole entry): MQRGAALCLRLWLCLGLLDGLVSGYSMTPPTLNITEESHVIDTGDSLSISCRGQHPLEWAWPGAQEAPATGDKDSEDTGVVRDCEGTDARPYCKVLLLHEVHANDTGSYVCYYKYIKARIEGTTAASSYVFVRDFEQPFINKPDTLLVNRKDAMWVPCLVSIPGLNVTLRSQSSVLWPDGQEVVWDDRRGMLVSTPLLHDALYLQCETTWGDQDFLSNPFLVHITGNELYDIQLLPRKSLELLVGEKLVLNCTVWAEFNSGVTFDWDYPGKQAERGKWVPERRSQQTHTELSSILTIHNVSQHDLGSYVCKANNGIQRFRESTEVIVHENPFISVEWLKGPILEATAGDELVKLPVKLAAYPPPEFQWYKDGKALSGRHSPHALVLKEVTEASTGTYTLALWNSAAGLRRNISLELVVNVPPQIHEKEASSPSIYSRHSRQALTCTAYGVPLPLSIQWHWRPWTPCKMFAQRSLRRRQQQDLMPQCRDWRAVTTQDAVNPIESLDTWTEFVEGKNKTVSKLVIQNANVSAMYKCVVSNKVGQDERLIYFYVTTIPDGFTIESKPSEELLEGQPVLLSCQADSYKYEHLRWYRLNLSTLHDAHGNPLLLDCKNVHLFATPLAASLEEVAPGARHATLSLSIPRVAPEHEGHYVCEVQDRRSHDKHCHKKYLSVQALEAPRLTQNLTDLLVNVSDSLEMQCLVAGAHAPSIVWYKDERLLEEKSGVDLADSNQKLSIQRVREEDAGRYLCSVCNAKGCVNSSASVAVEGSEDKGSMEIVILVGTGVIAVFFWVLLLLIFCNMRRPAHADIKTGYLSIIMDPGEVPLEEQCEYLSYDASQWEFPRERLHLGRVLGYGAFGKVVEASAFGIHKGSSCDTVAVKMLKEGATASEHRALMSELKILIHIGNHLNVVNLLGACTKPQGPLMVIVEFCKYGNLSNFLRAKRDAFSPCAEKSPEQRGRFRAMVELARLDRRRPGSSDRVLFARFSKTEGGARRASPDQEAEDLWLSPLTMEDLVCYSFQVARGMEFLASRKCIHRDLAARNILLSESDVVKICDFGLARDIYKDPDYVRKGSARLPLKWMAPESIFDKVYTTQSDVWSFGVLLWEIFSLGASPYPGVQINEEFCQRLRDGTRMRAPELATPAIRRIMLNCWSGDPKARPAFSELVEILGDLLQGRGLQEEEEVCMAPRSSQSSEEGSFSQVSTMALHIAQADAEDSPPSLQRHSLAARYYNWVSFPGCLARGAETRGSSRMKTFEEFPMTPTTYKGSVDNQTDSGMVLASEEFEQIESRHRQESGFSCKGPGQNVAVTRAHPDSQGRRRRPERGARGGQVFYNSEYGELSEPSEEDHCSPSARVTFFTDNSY
Dual specificity tyrosine-phosphorylation-regulated kinase 2 (Homo sapiens), sequence (Q92630 whole entry): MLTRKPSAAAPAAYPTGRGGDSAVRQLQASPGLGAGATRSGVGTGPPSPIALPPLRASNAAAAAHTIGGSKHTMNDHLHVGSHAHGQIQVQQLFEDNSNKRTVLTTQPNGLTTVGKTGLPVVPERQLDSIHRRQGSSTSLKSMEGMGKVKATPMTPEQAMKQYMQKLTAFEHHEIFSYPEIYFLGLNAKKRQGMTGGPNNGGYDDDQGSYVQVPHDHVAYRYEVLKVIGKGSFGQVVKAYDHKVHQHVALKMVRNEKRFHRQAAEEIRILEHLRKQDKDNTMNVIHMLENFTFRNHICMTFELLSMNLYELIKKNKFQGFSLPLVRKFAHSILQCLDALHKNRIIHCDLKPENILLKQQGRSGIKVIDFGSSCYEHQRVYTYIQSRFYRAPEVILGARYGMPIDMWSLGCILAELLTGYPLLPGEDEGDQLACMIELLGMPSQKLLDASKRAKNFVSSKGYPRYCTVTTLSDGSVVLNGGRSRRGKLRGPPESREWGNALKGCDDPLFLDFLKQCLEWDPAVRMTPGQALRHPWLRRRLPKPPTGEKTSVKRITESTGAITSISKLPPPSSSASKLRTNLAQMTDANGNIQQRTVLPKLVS
Mast/stem cell growth factor receptor Kit (Homo sapiens), P10721 [A829P], sequence (P10721 whole entry A829P): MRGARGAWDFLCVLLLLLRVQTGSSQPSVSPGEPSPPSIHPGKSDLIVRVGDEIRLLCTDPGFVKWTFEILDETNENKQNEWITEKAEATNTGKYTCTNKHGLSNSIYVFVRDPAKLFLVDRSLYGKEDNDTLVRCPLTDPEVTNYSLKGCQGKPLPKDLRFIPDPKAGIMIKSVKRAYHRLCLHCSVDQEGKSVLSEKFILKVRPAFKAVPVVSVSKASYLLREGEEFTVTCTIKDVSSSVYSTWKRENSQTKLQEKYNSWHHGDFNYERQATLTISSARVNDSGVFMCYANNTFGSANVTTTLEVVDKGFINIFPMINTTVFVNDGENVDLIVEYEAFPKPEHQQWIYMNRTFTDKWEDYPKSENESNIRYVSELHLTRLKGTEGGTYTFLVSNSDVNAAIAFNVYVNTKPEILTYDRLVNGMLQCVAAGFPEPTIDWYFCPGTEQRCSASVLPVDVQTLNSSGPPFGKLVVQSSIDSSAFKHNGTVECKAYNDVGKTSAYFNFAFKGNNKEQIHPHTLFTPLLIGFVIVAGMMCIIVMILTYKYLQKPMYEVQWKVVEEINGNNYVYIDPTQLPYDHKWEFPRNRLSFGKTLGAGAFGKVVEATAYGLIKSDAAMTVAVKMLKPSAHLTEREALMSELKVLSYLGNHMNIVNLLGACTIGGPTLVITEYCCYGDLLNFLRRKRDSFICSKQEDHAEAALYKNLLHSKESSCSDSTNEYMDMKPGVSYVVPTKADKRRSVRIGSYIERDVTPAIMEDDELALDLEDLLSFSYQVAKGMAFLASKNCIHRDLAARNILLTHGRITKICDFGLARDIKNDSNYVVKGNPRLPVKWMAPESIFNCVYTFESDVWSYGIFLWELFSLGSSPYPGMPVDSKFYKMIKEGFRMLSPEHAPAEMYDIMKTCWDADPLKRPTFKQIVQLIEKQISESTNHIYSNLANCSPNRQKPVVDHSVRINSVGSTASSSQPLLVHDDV
5-hydroxytryptamine receptor 5A (Homo sapiens), sequence (P47898 whole entry): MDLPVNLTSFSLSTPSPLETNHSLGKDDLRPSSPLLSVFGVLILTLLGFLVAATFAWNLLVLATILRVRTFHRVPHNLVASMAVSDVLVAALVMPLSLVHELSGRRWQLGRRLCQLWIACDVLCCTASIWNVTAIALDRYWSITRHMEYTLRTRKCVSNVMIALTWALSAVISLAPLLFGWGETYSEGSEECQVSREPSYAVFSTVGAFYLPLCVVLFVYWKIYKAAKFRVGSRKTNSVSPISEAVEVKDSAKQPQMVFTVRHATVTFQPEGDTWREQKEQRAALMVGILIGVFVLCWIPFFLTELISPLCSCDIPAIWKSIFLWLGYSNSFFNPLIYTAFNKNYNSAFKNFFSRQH

Cc1nc(Cc2cccc(C(F)(F)F)c2)sc1-c1ccc(C(N)=O)nc1 [TP-024n]
inactive: residual activity [1] 83% | residual activity [2] 100% | residual activity [3] 100% | residual activity [4] 100% | residual activity [5] 83% | residual activity [6] 83% | residual activity [7] 100% | residual activity [8] 90% | residual activity [9] 100% | residual activity [10] 100% | residual activity [11] 100% | residual activity [12] 99% | residual activity [13] 83% | residual activity [14] 100% | residual activity [15] 100% | residual activity [16] 100% | residual activity [17] 100% | residual activity [18] 100% | residual activity [19] 96% | residual activity [20] 100% | residual activity [21] 90% | residual activity [22] 81% | residual activity [23] 71% | residual activity [24] 81% | residual activity [25] 91% | residual activity [26] 100% | residual activity [27] 100% | residual activity [28] 100% | residual activity [29] 100% | residual activity [30] 88% | residual activity [31] 100% | residual activity [32] 91% | residual activity [33] 69% | residual activity [34] 82% | residual activity [35] 95% | residual activity [36] 88% | residual activity [37] 64% | residual activity [38] 88% | residual activity [39] 73% | residual activity [40] 93% | inhibition [41] -2.04% | inhibition [42] 3.99% | inhibition [43] 2.42% | inhibition [44] 2.07% | inhibition [45] -1.63% | inhibition [46] -5.68%

Cc1cc(-n2nc(Cc3cc(F)cc(C(F)(F)F)c3)nc2C)ccc1C(N)=O [TP-024]
inactive: residual activity [1] 85% | residual activity [2] 100% | residual activity [3] 100% | residual activity [4] 83% | residual activity [5] 86% | residual activity [6] 96% | residual activity [7] 100% | residual activity [8] 91% | residual activity [9] 96% | residual activity [10] 100% | residual activity [11] 100% | residual activity [12] 100% | residual activity [13] 100% | residual activity [14] 100% | residual activity [15] 97% | residual activity [16] 100% | residual activity [17] 98% | residual activity [18] 100% | residual activity [19] 100% | residual activity [20] 100% | residual activity [21] 100% | residual activity [22] 100% | residual activity [23] 95% | residual activity [24] 100% | residual activity [25] 100% | residual activity [26] 100% | residual activity [27] 100% | residual activity [28] 100% | residual activity [29] 100% | residual activity [30] 100% | residual activity [31] 100% | residual activity [32] 90% | residual activity [33] 100% | residual activity [34] 95% | residual activity [35] 100% | residual activity [36] 100% | residual activity [37] 97% | residual activity [38] 100% | residual activity [39] 99% | residual activity [40] 82% | inhibition [41] -4.42% | inhibition [42] 7.99% | inhibition [43] 6.25% | inhibition [44] -1.39% | inhibition [45] 4.48% | inhibition [46] 3.15%
